BindingDB's records for doi:10.1016/j.ejmech.2011.10.051 (University of The Mediterranean, 2012)

Key:
[1] = Inhibition of Met-mediated tumorigenesis in HGF-stimulated human HepG2 cells assessed as impairment in anchorage-independent growth by soft agar growth assay
[2] = Inhibition of Met-mediated tumorigenesis in HGF-stimulated human GTL16 cells assessed as impairment in anchorage-independent growth by soft agar growth assay
[3] = Inhibition of Met-mediated scattering in HGF-stimulated […] cells pre-incubated overnight prior to HGF stimulation for 24 hrs measured after 24 to 48 hrs
[4] = Inhibition of TPR-fused MET-mediated mouse BA/F3 cell proliferation after 48 hrs by cell titre blue based spectrophotometry

IC50 [1] [nM] | IC50 [2] [nM] | IC50 [3] [nM] | IC50 [4] [nM] | SMILES
1560 | 228 | 152 |  | Cc1[nH]c(/C=C2\C(=O)Nc3ccc(S(=O)(=O)N(C)c4cccc(Cl)c4)cc32)c(C)c1C(=O)N1CCN(C)CC1 [(3Z)-N-(3-CHLOROPHENYL)-3-({3,5-DIMETHYL-4-[(4-METHYLPIPERAZIN-1-YL)CARBONYL]-1H-PYRROL-2-YL}METHYLENE)-N-METHYL-2-OXOINDOLINE-5-SULFONAMIDE]
620 | 1190 | 206 |  | O=C(Cc1cc(C(F)(F)F)cc(C(F)(F)F)c1)N[C@H](Cc1ccccc1)C(=O)Nc1ccc(-c2cn3c(n2)sc2ccccc23)cc1
321 | 811 | 171 | 4000 | O=C(Cc1cc(C(F)(F)F)cc(C(F)(F)F)c1)N[C@@H](Cc1ccccc1)C(=O)Nc1ccc(-c2cn3c(n2)sc2ccccc23)cc1
